{"source": "patent US7244749B2", "about": "“Compositions and methods for lowering plasma lipoprotein(a) and risk factors of cardiovascular diseases” (priority 2000, dated 2007)", "origin": "cited, not measured here", "tested_on": "plasma Lp(a)", "settings": "males with prostatic cancer", "data": [{"substance": "Estrogen", "values": [{"measurement": "reduction of plasma Lp(a)", "value": 50, "unit": "%"}]}]}
